Assay results published in patent US4454291A, “N-(2-Substituted-1-oxoalkyl)-2,3-dihydro-1H-indole-2-carboxylic acid derivatives” (American Home Products Corporation, priority 1982, dated 1984).
Counter-ions that a name gives are not always drawn. Square brackets hold non-standard residues; d marks the D form. Ends that are not written are not given here. pGlu = O=C1CC[C@@H](C(=O)O)N1

Columns and labels:
[1] = biological target: T1, angiotensin converting enzyme (Oryctolagus cuniculus, UniProt P12822); assay: In vitro assay for angiotensin converting enzyme inhibition utilizing rabbit lung extract (Cushman et al.), hippuryl-L-histidyl-L-leucine substrate; format: biochemical
T1 construct: utilizing the rabbit lung extract; from tissue; host or cells: rabbit lung extract
T1 sequence (P12822 34-1310): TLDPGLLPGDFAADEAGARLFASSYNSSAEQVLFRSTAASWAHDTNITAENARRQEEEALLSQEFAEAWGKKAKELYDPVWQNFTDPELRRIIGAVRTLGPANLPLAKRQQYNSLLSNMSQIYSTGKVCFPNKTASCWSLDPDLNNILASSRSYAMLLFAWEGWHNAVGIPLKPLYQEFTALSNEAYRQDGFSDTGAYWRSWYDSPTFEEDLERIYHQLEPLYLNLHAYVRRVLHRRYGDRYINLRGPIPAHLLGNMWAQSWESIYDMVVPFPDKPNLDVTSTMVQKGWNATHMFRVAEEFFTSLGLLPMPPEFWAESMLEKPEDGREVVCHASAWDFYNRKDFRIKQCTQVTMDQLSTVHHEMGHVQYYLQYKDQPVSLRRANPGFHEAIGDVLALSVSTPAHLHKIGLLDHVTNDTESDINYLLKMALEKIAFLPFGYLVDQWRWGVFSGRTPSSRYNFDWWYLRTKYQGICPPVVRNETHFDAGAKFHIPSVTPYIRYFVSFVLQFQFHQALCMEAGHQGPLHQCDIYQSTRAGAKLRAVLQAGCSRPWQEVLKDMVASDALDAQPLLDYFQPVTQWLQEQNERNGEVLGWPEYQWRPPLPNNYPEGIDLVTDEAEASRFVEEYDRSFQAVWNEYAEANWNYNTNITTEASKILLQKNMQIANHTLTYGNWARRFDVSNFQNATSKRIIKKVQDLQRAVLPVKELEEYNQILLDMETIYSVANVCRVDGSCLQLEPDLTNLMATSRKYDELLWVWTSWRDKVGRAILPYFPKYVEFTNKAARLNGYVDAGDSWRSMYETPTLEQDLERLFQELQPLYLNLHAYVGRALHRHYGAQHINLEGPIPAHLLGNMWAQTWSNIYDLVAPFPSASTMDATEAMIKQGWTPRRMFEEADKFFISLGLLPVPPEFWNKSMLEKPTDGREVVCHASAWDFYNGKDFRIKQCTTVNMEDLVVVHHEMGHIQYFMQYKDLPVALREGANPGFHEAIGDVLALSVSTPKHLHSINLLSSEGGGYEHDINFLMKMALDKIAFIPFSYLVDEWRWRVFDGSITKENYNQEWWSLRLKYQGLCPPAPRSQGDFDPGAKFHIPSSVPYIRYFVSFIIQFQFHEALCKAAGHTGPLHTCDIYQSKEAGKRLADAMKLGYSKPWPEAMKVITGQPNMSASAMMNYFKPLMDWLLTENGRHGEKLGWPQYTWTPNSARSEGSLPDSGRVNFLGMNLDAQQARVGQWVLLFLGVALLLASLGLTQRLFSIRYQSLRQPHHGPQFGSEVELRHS
Method: The angiotensin converting enzyme (ACE) inhibitory property of the compounds is measured in vitro and in vivo. The in vitro assay utilizes rabbit lung extract and a specific tripeptide substrate, hippuryl-L-histidyl-L-leucine being preferred, and follows the method of Cushman et al., Biochem. Pharmacol., 20, 1637-1648 (1971).
In the in vitro assay for angiotensin converting enzyme inhibition utilizing the rabbit lung extract according to the procedure of Cushman et al., Biochem. Pharmacol., 20, 1637-1648 (1971), the following results were obtained: […]

[2] = test system: hypertension; details: humans with certain forms of hypertension; cited from earlier work
[3] = test system: hypertension; details: cited from earlier work
[4] = test system: angiotensin converting enzyme; details: cited from earlier work
[5] = test system: vasopressor action of Angiotensin I; assay: In vivo ACE inhibitory activity in the conscious normotensive rat: angiotensin I vasopressor response (Rubin et al.); set-up: species or system rat (Sprague-Dawley, male; details: oral, 1 mg/kg, 2 hours after administration
Method: The in vivo ACE inhibitory activity of the compounds is measured according to the procedure described in Rubin et al., J. Pharmacol. Exp. Ther., 204, 271-280 (1978), which utilizes the conscious normotensive tat as a subject. In this procedure, the jugular vein and carotid artery cannulae are placed in an etheranesthetized, normotensive, male, Sprague-Dawley rat for injection or oral dosage of compounds and direct recording of systemic arterial pressure, respectively. The blood pressure responses to I. V. injections of angiotensin I (500 ng/kg.), angiotensin II (100 ng/kg.) and bradykinin (10 μg/kg.) are recorded and compared with identical doses administered at various time intervals after oral dosing of a prospective angiotensin converting enzyme inhibitor. An angiotensin converting enzyme inhibitor would not be expected necessarily to lower arterial pressure in the normotensive rat, but would be expected to block angiotensin I pressor responses without grossly altering angiotensin II responses. Additionally,the vasodepressor response to bradykinin would be expected to be augmented since angiotensin converting enzyme is known to inactivate bradykinin normally.

[6] = test system: spontaneously hypertensive rat; assay: Anti-hypertensive effect in the spontaneously hypertensive rat (systolic pressure, indirect caudal plethysmograph); format: in vivo, male); details: oral, 4 subjects
Method: The anti-hypertensive effect of the compounds of the invention is measured in the spontaneously hypertensive rat. In this procedure systolic pressure of male spontaneously hypertensive rats is measured by an indirect technique using the Decker Caudal Plethysmograph or other appropriate sensor. Groups usually consist of 4 or more rats. Drugs are usually administered orally. Pressures are usually read prior to drug administration and at 1.5, 4 and 24 hours thereafter. This schedule may be altered depending upon the behavior of the drug.
This procedure measures the hypotensive effect of the subject compounds in a hypertensive subject using a single dose and measuring the response over a 24 hour period. When administered orally according to this procedure, compounds of the invention produced a significant decrease in blood pressures in doses of 1-50 mg/kg. When used to treat hypertension in warm-blooded animals doses of less than 15 mg/kg./day would be utilized, and preferably doses of less than 5 mg/kg./day. Such effective treatment doses would generally be administered in long-term antihypertensive therapy.

IC50 [1] [nM] | Molecule | oral activity as an anti-hypertensive agent [3] | potency as inhibitors of angiotensin converting enzyme [4] | other results
900 | CCOC(=O)[C@@H](CCc1ccccc1)N[C@@H](C)C(=O)N1c2ccccc2C[C@H]1C(=O)O [Example 56, (-)-(S)-1-[(2S)-2-[[(1R)-1-(Ethoxycarbonyl)-3-Phenylpropyl]Amino]-1-Oxopropyl]-2,3-Dihydro-1H-Indole-2-Carboxylic Acid, Maleate] | – | – | –
– | Pyr-Trp-Pro-Arg-Pro-Gln-Ile-Pro-Pro (WPRPQIPP; N-terminal pyroglutamate; printed: Trp-Pro-Arg-Pro-Gln-Ile-Pro-Pro) [BPP9a] | not orally active | most potent | anti-hypertensive effect in clinical studies [2]: effective anti-hypertensive agent
3100 | C[C@H](N)C(=O)N1c2ccccc2C[C@H]1C(=O)O [Example 54, (S)-1-[(S)-2-Amino-Oxopropyl]-2,3-Dihydro-1H-Indole-2-Carboxylic Acid] | – | – | –
118 | CCOC(=O)[C@H](CCc1ccccc1)N[C@@H](C)C(=O)N1c2ccccc2C[C@H]1C(=O)O.O=C(O)/C=C\C(=O)O [Example 55, (-)-(S)-1-[(2S)-2-[[(1S)-1-(Ethoxycarbonyl)-3-Phenylpropyl]Amino]-1-Oxopropyl]-2,3-Dihydro-1H-Indole-2-Carboxylic Acid, Maleate] | – | – | inhibition of the vasopressor action of Angiotensin I [5]: 46%; Reduction of Systolic BP ([6]; 2.5 mg/kg): -13 mm. Hg.; Reduction of Systolic BP ([6]; 5.0 mg/kg): -23 mm. Hg.; Reduction of Systolic BP ([6]; 10.0 mg/kg): -33 mm. Hg.
– | C[C@H](CS)C(=O)N1CCCC1C(=O)O (stereo in doubt) [D-3-mercapto-2methylpropanoyl-L-proline] | effective when administered orally | – | effectiveness among the proline derivatives ([3]; in vivo): most effective
– | Pyr-Lys-Trp-Ala-Pro ([pGlu]KWAP) [BPP5a] | – | most potent | –
